The subject of series [1] is human breast cancer xenographs. Put plainly: MRI of magnetic field induced localization of PMNPs in breast cancer xenograft mice. The series is classed as in vivo, mouse. The procedure: FIGS. 3(A-D). […] By applying a magnet field for 30 minutes at hind end (blue arrows), the enhanced image of hind-end tumor is observed (3B). The enhanced image of the tumor persists for at least several hours. […] The PMNPs are concentrated at site of a lower abdominal mammary tumor (FIG. 3C) using an external magnetic field placed over the tumor for 30 minutes. […] Imaging was performed over several hours without taking the mouse out of MRI machine thereby maintaining all of the imaging parameters.
FIGS. 4(A-B). Compares the MRI contrast data between […] and gadolinium oxide-based PMNPs.
In FIG. 3 are presented results on magnetic immobilization of gadolinium-based PMNPs in a mouse with numerous human breast cancer xenographs. There is no image enhancement for any of the multiple tumors located in different parts of the mouse including one at hind end (green-arrow at bottom of the picture marked tumor). The mouse was then removed and then subjected to thirty minutes of having a magnetic field placed over the tumor demarked by the green arrow. […] The intensity of MRI signal is very similar at both tumor and bladder. This is very different than observed in case of […] where there is a transient image of the bladder and no site specific localization of the contrast agent in any one of the tumors. […]

Series [2] concerns MoB-1833 mammary xenografted tumor. Put plainly: ADM-PMNP plus magnetic field on xenografted human breast cancer, bioluminescence. It counts as in vivo, mouse. The note with it: comparable amount of free drug. As for the experimental part: FIG. 8 Anti-tumor effect of IV infused Adriamycin loaded PMNP (ADM-PMNP) plus magnetic field treatment on xenografted human breast cancer. Human breast cancer was s.c. xenografted in a female nude mouse. The mouse was injected with 1 mg/kg ADM-PMNP and the tumor was treated with magnetic field for 30 minutes following each injection The mouse was imaged before and after the treatment, the luminescent signals were quantitatively analyzed for change of tumor size. At the end of the treatment, there was a >80% decrease of luminescent signaling in the tumor. The signal recovered partially 3 days after the treatment was ended.
Signal intensity in treated tumor was similar to that in bladder, a major route of PMNP elimination. Next, to assess drug delivery and anti-tumor efficacy, MoB-1833 mammary xenografted tumor-bearing mice were infused with ADM-coated PMNP (ADM-PMNP). ADM use in chemotherapy is limited due to systemic toxicity and it is therefore an excellent model drug for evaluation of the potentially utility of our PMNP platform. […] This ADM dose is 5-20 times lower than doses of free ADM commonly used for in animal studies and similar to doses used clinically. The 4-day treatment achieved a 9-fold reduction in tumor mass (FIG. 8). Tumor rebound upon drug termination confirmed specificity of the drug effect. […] The necrosis was confirmed histologically (FIG. 9Bd-f). […]
On the technique in general: Xenograft models place foreign cells or tissue in a host animal.

The subject of series [3] is human breast cancer line, MDA-MB-436. Put plainly: Tumor necrosis in xenografted human breast cancer. It counts as in vivo, mice. The note with it: 1.0 mg/kg.
A short description of series [4]: Histopathological analysis of multiple tissues (toxicity). As to conditions: same dose (1 mg/kg BW). The series is classed as in vivo, mice. The procedure:
FIGS. 11(A-B). Systemic effect of the treatment. (A) Representative H&E staining of tissue sections from ADM-PMNP injected mice (1 mg/kg BW)(A). (B) inflammation and hyperplasia were found in colon from mice treated with free ADM (B-left) but not in mice injected with the same dose of ADM-PMNP (B-right).

Series [5] is described as follows: Radiation protection by localized melanin. The series is classed as in vivo, rat. As to conditions: earlier studies. The text has this:
The same protocol used for curcumin also works for melanin resulting in melanin loaded OA-PMNPs. These particles have potential use as radioprotectants. The melanin loaded OA-PMNPs would be infused into the patient and then magnetically localized in healthy tissue surrounding the diseased tissue targeted for radiation treatment. […] Additionally melanin loaded PMNP can be used as targeted contrast agent for photo-acoustic based imaging.

Series [6] has as its system U87 human glioblastoma cells. Put plainly: Cell viability assay, Presto Blue, 48 h. The series is classed as cell-based. The procedure:
FIG. 22 Cytotoxicity of naked curcumin, curcumin conjugated PMNPs and Sol-Gel Nps and blanks (without curcumin) performed on U87 human glioblastoma cells after 48 hours of incubation. Note that 1 μM equivalent curcumin concentration corresponds to 16.7 μg/mL of nanoparticles. […] The data represents the mean±SE, n=3 to 18.
Cells were plated in 24-well trays and allowed to become confluent then incubated with naked curcumin or different curcumin NP concentrations for 48 h. Cell viability was quantified using Presto Blue (Invitrogen) an assay that contains a cell permeable resazurin-based solution that is modified by the reducing environment of the viable cell becoming highly fluorescent. Using a plate reader, cell viability was quantified after 0.5-1 hours of incubation with Presto Blue. All measurements were always accompanied by control wells and by calibration wells to account for background fluorescence using the same culture media and the same NP concentrations without the cells.

Regarding `CNC[C@H](O)[C@@H](O)[C@H](O)[C@H](O)CO.CNC[C@H](O)[C@@H](O)[C@H](O)[C@H](O)CO.O=C([O-])CN(CCN(CC(=O)[O-])CC(=O)O)CCN(CC(=O)[O-])CC(=O)O.[Gd+3]`, the “persistence of MRI contrast” value in series [1] (FIG. 4) was “short lived”. The “distribution of contrast agent by MRI” value in series [1] (within a short time, no magnetic field) is “concentrates in the bladder”.
Regarding `COc1cccc2c1C(=O)c1c(O)c3c(c(O)c1C2=O)C[C@@](O)(C(=O)CO)C[C@@H]3O[C@H]1C[C@H](N)[C@H](O)[C@H](C)O1` [Adriamycin, doxorubicin], in series [2], the anti-tumor effect result is “relatively ineffective”. Besides, the tumor necrosis result in series [3] is listed as “smaller necrotic lesions”. Also, the colon histology result in series [4] is “colonic inflammation and hyperplasia”.
In the case of melanin, in series [5], the “radiation damage in irradiated legs” value was “prevent radiation damage”.
`COc1cc(/C=C/C(=O)CC(=O)/C=C/c2ccc(O)c(OC)c2)ccc1O` [Curcumin]: the “equivalent Curcumin concentration that decreases cell viability by 20%” value in series [6] amounted to 5 µM.
